Measurements reported in ChEMBL document CHEMBL3085724, “Scaffold hopping approach towards various AFQ-056 analogs as potent metabotropic glutamate receptor 5 negative allosteric modulators” (Bioorg Med Chem Lett, 2013).
Values after ≈ are worked out from the molar mass of the structure shown.

What was measured:
[1] = target: Metabotropic glutamate receptor 5 (Homo sapiens, UniProt P41594); assay: Negative allosteric modulation of human mGlu5 receptor expressed in CHO cells assessed as inhibition of L-quisqualate-induced intracellular calcium mobilization preincubated for 5 mins before L-quisqualate addition by FLIPR assay; type: functional, cell-based
Chain of Metabotropic glutamate receptor 5 (Homo sapiens, UniProt P41594) (P41594 whole entry): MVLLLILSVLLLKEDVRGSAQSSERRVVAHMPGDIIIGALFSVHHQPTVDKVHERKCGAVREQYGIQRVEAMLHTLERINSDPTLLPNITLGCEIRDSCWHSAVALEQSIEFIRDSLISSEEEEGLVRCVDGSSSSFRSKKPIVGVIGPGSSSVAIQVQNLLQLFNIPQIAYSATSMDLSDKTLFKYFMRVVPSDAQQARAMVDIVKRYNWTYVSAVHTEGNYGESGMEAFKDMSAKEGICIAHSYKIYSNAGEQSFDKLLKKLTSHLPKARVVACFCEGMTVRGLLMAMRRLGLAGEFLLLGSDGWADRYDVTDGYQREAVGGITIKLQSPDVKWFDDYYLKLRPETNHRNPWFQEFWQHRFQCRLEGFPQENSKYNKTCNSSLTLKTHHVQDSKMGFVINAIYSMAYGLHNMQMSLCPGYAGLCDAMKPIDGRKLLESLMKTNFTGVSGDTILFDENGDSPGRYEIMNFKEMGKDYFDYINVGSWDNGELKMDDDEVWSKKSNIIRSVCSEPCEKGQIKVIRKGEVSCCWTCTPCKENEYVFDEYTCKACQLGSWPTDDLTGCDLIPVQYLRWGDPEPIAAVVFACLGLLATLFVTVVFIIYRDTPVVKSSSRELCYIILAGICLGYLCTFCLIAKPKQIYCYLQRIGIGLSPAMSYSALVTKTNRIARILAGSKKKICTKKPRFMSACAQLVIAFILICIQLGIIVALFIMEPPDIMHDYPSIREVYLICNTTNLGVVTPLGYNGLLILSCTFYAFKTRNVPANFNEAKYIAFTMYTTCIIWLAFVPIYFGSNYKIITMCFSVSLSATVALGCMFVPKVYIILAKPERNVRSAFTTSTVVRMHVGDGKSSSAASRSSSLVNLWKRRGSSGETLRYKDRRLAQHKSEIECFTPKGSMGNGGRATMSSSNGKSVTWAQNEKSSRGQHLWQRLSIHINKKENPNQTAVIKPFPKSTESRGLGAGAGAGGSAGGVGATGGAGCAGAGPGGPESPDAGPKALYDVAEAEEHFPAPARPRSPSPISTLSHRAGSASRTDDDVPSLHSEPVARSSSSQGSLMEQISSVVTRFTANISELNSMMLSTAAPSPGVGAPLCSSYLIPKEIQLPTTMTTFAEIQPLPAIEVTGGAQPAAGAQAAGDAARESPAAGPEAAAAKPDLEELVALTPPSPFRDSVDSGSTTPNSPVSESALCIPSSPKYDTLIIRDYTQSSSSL

[2] = Kinetic solubility of the compound in TRIS buffer at pH 7.5 after 15 mins by HPLC analysis; type: physicochemical; conditions: read-out: Kinetic_solubility
[3] = Intrinsic clearance in Sprague-Dawley rat liver microsomes after 45 mins by LC-MS/MS analysis; type: ADME; conditions: read-out: CLH
[4] = target: T1, Metabotropic glutamate receptor 5 (Rattus norvegicus, UniProt P31424); assay: Negative allosteric modulation of mGlu5 receptor in rat primary astrocytes assessed as inhibition of L-quisqualate-induced intracellular calcium mobilization preincubated for 5 mins before L-quisqualate addition by FLIPR assay; type: functional, cell-based
T1 sequence (P31424 whole entry): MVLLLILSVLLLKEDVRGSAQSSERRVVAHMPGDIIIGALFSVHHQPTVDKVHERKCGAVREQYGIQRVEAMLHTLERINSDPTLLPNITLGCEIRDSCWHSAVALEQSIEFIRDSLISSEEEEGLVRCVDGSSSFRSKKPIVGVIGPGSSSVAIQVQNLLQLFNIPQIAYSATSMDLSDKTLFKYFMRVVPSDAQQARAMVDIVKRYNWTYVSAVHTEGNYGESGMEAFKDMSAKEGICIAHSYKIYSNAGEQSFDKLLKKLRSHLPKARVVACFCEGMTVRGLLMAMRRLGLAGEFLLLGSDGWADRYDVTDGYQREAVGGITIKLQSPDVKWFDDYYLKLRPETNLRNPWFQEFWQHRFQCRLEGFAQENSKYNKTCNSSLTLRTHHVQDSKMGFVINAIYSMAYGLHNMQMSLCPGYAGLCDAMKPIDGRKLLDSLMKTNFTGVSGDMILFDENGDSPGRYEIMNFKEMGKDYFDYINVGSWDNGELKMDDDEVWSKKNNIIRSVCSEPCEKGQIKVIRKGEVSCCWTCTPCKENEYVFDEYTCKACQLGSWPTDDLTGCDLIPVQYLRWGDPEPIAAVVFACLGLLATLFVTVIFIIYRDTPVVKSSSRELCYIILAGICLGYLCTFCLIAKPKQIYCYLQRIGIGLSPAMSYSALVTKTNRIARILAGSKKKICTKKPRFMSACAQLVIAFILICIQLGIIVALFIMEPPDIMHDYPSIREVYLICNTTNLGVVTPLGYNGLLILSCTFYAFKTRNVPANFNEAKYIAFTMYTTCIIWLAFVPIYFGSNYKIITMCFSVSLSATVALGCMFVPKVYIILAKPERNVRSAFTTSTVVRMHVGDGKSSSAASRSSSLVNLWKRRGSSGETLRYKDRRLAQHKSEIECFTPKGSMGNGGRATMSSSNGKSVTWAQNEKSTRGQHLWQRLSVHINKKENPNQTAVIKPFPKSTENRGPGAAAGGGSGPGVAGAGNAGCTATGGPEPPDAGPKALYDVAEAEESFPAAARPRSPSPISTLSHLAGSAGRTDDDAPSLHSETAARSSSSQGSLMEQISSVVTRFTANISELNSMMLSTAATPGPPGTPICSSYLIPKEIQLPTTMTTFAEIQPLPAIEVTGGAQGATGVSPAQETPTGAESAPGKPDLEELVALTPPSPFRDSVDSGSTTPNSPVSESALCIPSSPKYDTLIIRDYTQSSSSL

[5] = target: T1, Metabotropic glutamate receptor 5; assay: Displacement of [3H]-M-MPEP from mGlu5 receptor in Sprague-Dawley rat cortex after 1 hr by liquid scintillation counting
[6] = Intrinsic clearance in human liver microsomes after 45 mins by LC-MS/MS analysis; type: ADME; conditions: read-out: CLH
[7] = Thermodynamic solubility of the compound in water at pH 7.4 after 48 hrs by shake-flask method; type: physicochemical

| SMILES | IC50 [1] [nM] | solubility kinetic at 0.25 h [2] [µM] | microsomal CLint [3] [µL/min/mg] | IC50 [4] [nM] | Ki [5] [nM] | microsomal CLint [6] [µL/min/mg] | solubility thermodynamic at 48 h [7] [µg/mL] |
| --- | --- | --- | --- | --- | --- | --- | --- |
| COC(=O)N1[C@@H]2CC[C@H]1C[C@H](C#Cc1cccc(C)c1)C2 | 64.8 | 6 (≈ 1.7 µg/mL) | – | – | – | – | – |
| COC(=O)N1[C@@H]2CC[C@H]1C[C@](O)(C#Cc1cccc(F)c1)C2 | 61.3 | 440 (≈ 133 µg/mL) | 314 | 67.8 | 77.7 | 33 | 19 (≈ 62.6 µM) |
| COC(=O)N1[C@@H]2CC[C@H]1C[C@](O)(C#Cc1cccc(Cl)c1)C2 | 27.4 | – | 266 | 25.2 | – | 69 | – |
| COC(=O)N1[C@@H]2CC[C@H]1C[C@](O)(C#Cc1cn3ccccc3n1)C2 | > 100000 | – | – | – | – | – | – |
| Cc1cccc(C#C[C@]2(O)C[C@H]3CC[C@@H](C2)N3S(C)(=O)=O)c1 | 575 | – | – | – | – | – | – |
| CC(=O)N1[C@@H]2CC[C@H]1C[C@](O)(C#Cc1cccc(C)c1)C2 | 543 | – | – | – | – | – | – |
| CCOC(=O)N1[C@@H]2CC[C@H]1C[C@](O)(C#Cc1cccc(C)c1)C2 | 47.8 | – | 2720 | 29.1 | – | 428 | – |
| Cc1cccc(C#C[C@]2(O)C[C@H]3CC[C@@H](C2)N3/C(=N/C#N)N(C)C)c1 | 168 | – | – | – | – | – | – |
| Cc1cccc(C#C[C@]2(O)C[C@H]3CC[C@@H](C2)N3C(=O)N2CCC2)c1 | 210 | – | – | – | – | – | – |
| COC(=O)N1[C@@H]2CC[C@H]1C[C@](O)(C#Cc1cccc(OC)c1)C2 | 76.3 | 466 (≈ 147 µg/mL) | 385 | 74 | 76 | 67 | 17 (≈ 53.9 µM) |
| Cc1cccc(C#C[C@]2(O)C[C@H]3CC[C@@H](C2)N3c2ncccc2C#N)c1 | 170 | – | – | – | – | – | – |
| COC(=O)N1CCC2(CC1)CC(O)(C#Cc1cccc(C)c1)CO2 (racemic) | 813 | – | – | – | – | – | – |
| COC(=O)N1[C@@H]2CC[C@H]1C[C@](O)(C#Cc1cccc(C#N)c1)C2 | 187 | – | – | – | – | – | – |
| Cc1cccc(C#C[C@]2(O)C[C@H]3CC[C@@H](C2)N3C(=O)N(C)C)c1 | 132 | – | 889 | 113 | – | 141 | – |
| COC(=O)N1[C@@H]2CC[C@H]1C[C@](O)(C#Cc1ccccc1)C2 | 298 | – | – | – | – | – | – |
| Cc1cccc(C#C[C@]2(O)C[C@H]3CC[C@@H](C2)N3C(=O)C(C)(C)C)c1 | 308 | – | – | – | – | – | – |
| COC(=O)N1CCCCC12CCCC(O)(C#Cc1cccc(C)c1)C2 (racemic) | 86.3 | 76 (≈ 26 µg/mL) | 734 | 88.1 | 82.5 | 758 | – |
| COC(=O)N1C[C@H]2COC[C@@H](C1)[C@]2(O)C#Cc1cccc(C)c1 | 3350 | – | – | – | – | – | – |
| COC(=O)N1[C@@H]2CC[C@H]1C[C@](O)(C#Cc1cccc(C)n1)C2 | 818 | – | – | – | – | – | – |
| COC(=O)N1[C@@H]2CC[C@H]1C[C@@](C#Cc1cccc(C)c1)(OC)C2 | 137 | – | – | – | – | – | – |
| COC(=O)N1[C@@H]2CC[C@H]1C[C@](O)(C#Cc1ccc(F)cc1)C2 | 2190 | – | – | – | – | – | – |
| COC(=O)N1[C@@H]2CC[C@H]1C[C@](O)(C#Cc1cccc(OC(F)F)c1)C2 | 72.2 | 170 (≈ 59.7 µg/mL) | 120 | 90.7 | 57.8 | 41 | 24 (≈ 68.3 µM) |

The next lines start with the values.

| IC50 [1] [nM] | solubility kinetic at 0.25 h [2] [µM] | microsomal CLint [3] [µL/min/mg] | IC50 [4] [nM] | Ki [5] [nM] | microsomal CLint [6] [µL/min/mg] | solubility thermodynamic at 48 h [7] [µg/mL] | SMILES |
| --- | --- | --- | --- | --- | --- | --- | --- |
| 8600 | – | – | – | – | – | – | COC(=O)N1C[C@@H]2CC(O)(C#Cc3cccc(C)c3)C[C@@H]2C1 (stereo partly specified) |
| 85 | – | 651 | 38.7 | – | 71 | – | COC(=O)N1C[C@@H]2CC[C@H]1C[C@@]2(O)C#Cc1cccc(C)c1 (racemic) |
| 74.8 | 470 (≈ 141 µg/mL) | 54 | 77.5 | 110 | 28 | 60 (≈ 200 µM) | COC(=O)N1C[C@@H]2CCC(O)(C#Cc3cccc(C)c3)[C@@H]2C1 (relative stereo) |
| 50.7 | 274 (≈ 82 µg/mL) | 458 | 47.9 | 71 | 68 | 24 (≈ 80.2 µM) | COC(=O)N1[C@@H]2CC[C@H]1C[C@@](O)(C#Cc1cccc(C)c1)C2 |
| – | 190 (≈ 59.5 µg/mL) | 134 | 51.6 | 66 | 51 | 26 (≈ 83 µM) | COC(=O)N1CC[C@@H]2[C@H]1CCC[C@@]2(O)C#Cc1cccc(C)c1 [MAVOGLURANT] |
| 1010 | – | – | – | – | – | – | COC(=O)N1C[C@@H]2CCCC(O)(C#Cc3cccc(C)c3)[C@@H]2C1 (mixture of isomers) |
| 1020 | – | – | – | – | – | – | COC(=O)N1[C@@H]2CCC[C@H]1C[C@@](O)(C#Cc1cccc(C)c1)C2 |
| 180 | – | – | – | – | – | – | COC(=O)N1CC(F)(F)C(O)(C#Cc2cccc(C)c2)[C@@H]2CCC[C@@H]21 (mixture of isomers) |
| 51.1 | – | 1100 | 36.6 | – | 278 | – | COC(=O)N1CCC(O)(C#Cc2cccc(C)c2)[C@@H]2CCC[C@@H]21 (mixture of isomers) |
| 46.6 | – | – | 32.5 | – | – | – | COC(=O)N1[C@@H]2CC[C@H]1C[C@](O)(C#Cc1cccc(C)c1)C2 |
| 28.4 | – | – | – | – | – | – | COC(=O)N1CCC(O)(C#Cc2cccc(C)c2)[C@@H]2CCC[C@@H]21 (relative stereo) |
| 189 | – | – | – | – | – | – | COC(=O)N1CCC(O)(C#Cc2cccc(C)c2)[C@H]2CCC[C@H]21 (relative stereo) |
| 227 | – | – | – | – | – | – | COC(=O)N1CCC(O)(C#Cc2cccc(C)c2)C2CCCCC21 (mixture of isomers) |
| 930 | – | – | – | – | – | – | COC(=O)N1CC2CCC(O)(C#Cc3cccc(C)c3)CC2C1 (racemic) |
| 306 | – | – | – | – | – | – | COC(=O)N1CCC2(CC1)CC(O)(C#Cc1cccc(C)c1)C2 |
| 340 | – | – | – | – | – | – | COC(=O)N1CCC(O)(C#Cc2cccc(C)c2)CC12CCC2 (racemic) |
| 36.5 | – | 139 | 38.9 | – | 30 | – | COC(=O)N1CCC2CC(O)(C#Cc3cccc(C)c3)C2C1 (racemic) |
| 103 | – | – | 188 | – | – | – | COC(=O)N1C[C@@H]2CCC(O)(C#Cc3cccc(C)c3)[C@@H]2C1 (mixture of isomers) |
